Measured values published in the Kinase Knowledgebase extract (Sharma et al. 2016).
Several values for one entry are separate records, joined by “and”; a condition that tells them apart may be missing. Identical values can stand only once.

Key:
[1] = molecular target: EGFR (human) (UniProt P00533)
[2] = molecular target: ROCK2 (human) (UniProt O75116); assay: Assessment of ROCK2 Kinase Acitvity
[3] = molecular target: CDK2 (UniProt P24941); assay: Enzyme Assay
[4] = molecular target: CDK2 (UniProt P24941); assay: Enzyme Assay; remark: listed apart in the source
[5] = molecular target: CDK2 (human) (UniProt P24941); assay: Enzyme Assay
[6] = molecular target: CDK2 (UniProt P24941)
[7] = molecular target: CDK2 (human) (UniProt P24941); assay: Enzyme Assay; remark: listed apart in the source
[8] = molecular target: CDK2 (human) (UniProt P24941); assay: Enzyme Assay; remark: listed apart in the source
[9] = molecular target: CDK2 (human) (UniProt P24941); assay: Enzyme Assay; remark: listed apart in the source
[10] = molecular target: CDK2 (human) (UniProt P24941)
[11] = molecular target: PIK3CA (human) (UniProt P42336); assay: Assessment of Cell Proliferation of MDA-361 Cells
Sequence of PIK3CA (human) (P42336 whole entry, looked up): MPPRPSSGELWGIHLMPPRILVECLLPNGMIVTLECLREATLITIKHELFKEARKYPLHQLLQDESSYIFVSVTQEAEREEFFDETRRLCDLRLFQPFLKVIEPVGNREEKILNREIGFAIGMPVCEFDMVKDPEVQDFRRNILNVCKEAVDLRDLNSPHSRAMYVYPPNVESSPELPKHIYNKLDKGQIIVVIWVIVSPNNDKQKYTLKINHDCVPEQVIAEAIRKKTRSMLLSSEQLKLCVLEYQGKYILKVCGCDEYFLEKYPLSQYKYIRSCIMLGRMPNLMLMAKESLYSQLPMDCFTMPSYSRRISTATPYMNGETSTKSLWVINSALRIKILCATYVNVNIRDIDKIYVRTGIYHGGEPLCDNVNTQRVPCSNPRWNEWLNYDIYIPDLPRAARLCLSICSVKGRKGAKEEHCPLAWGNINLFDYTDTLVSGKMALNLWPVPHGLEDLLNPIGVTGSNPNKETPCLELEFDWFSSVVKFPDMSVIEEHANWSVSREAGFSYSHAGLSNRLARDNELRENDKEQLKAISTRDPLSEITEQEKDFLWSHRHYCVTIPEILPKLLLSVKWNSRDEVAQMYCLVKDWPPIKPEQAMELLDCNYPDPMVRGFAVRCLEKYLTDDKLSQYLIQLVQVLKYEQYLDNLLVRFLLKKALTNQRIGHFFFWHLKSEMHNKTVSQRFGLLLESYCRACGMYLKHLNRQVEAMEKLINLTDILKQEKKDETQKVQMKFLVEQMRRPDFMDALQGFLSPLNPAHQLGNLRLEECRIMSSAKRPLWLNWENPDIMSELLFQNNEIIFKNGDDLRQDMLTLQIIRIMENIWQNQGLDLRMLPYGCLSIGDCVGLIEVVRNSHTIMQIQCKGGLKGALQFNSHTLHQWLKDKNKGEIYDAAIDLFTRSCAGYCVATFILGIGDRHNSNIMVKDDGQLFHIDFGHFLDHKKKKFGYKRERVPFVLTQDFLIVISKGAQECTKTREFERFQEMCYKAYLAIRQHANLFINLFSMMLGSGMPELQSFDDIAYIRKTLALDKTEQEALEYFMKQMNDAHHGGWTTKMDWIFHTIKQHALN

[12] = molecular target: EGFR (human) (UniProt P00533); remark: listed apart in the source
[13] = molecular target: EGFR (human) (UniProt P00533); settings: h1975
[14] = molecular target: EGFR (human) (UniProt P00533); settings: huvec
[15] = molecular target: PIK3CA (human) (UniProt P42336); assay: Inhibition of PIK3CA Kinase Activity
[16] = molecular target: MTOR;PIK3CA (human) (UniProt P42336); assay: Inhibition of PIK3CA and MTOR Kinase Activity in Caco-2 Cells
Sequence of MTOR;PIK3CA (human) (P42336 whole entry, looked up): as above

[17] = molecular target: MTOR;PIK3CA (human) (UniProt P42336); assay: Inhibition of PIK3CA and MTOR Kinase Activity in LOVO Cells
[18] = molecular target: MTOR;PIK3CA (human) (UniProt P42336); assay: Inhibition of PIK3CA and MTOR Kinase Activity in PC-3 Cells
[19] = molecular target: EGFR (human) (UniProt P00533); settings: mda-mb-468
[20] = molecular target: EGFR (human) (UniProt P00533); settings: a431
[21] = molecular target: EGFR (human) (UniProt P00533); settings: a431; remark: listed apart in the source
[22] = molecular target: EGFR (human) (UniProt P00533); remark: listed apart in the source
[23] = molecular target: PIK3CA (human) (UniProt P42336); assay: Inhibition of PIK3CA Kinase (ATP Loss) Activity
[24] = molecular target: PIK3CB (Human) (UniProt P42338); assay: Inhibition of PIK3CB Kinase (ATP Loss) Activity
Sequence of PIK3CB (Human) (P42338 whole entry, looked up): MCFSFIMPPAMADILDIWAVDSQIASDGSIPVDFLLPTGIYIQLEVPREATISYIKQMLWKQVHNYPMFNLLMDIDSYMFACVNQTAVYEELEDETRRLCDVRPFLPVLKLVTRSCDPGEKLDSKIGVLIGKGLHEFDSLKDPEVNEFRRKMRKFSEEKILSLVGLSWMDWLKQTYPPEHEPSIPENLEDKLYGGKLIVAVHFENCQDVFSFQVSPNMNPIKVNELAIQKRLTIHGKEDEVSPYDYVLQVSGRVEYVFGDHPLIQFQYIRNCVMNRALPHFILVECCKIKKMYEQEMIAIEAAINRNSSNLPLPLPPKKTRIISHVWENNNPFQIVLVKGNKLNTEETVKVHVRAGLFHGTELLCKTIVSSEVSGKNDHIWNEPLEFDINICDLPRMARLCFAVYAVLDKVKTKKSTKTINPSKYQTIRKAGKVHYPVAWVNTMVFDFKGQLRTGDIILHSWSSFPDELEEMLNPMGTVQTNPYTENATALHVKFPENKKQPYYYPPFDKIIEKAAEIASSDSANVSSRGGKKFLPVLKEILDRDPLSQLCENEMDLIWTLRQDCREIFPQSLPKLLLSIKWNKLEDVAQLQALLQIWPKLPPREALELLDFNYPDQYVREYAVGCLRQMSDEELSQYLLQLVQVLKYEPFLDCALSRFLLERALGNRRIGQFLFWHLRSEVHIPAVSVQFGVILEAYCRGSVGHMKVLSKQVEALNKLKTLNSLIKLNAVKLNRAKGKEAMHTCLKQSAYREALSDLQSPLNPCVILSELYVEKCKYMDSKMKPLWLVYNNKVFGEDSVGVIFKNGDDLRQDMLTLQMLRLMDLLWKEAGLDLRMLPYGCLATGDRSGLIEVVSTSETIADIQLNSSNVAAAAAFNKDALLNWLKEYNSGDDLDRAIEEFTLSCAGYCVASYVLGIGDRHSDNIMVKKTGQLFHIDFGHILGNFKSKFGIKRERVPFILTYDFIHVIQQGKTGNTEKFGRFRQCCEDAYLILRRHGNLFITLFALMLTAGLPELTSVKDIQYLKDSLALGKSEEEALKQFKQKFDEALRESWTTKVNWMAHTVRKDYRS

[25] = molecular target: EGFR (human) (UniProt P00533); remark: listed apart in the source
[26] = molecular target: EGFR (human) (UniProt P00533); remark: listed apart in the source
[27] = molecular target: EGFR (human) (UniProt P00533); remark: listed apart in the source
[28] = molecular target: EGFR (human) (UniProt P00533); remark: listed apart in the source
[29] = molecular target: EGFR (human) (UniProt P00533); settings: kb
[30] = molecular target: EGFR (human) (UniProt P00533); settings: cal-27
[31] = molecular target: CDK2 (human) (UniProt P24941); remark: listed apart in the source
[32] = molecular target: CDK2 (human) (UniProt P24941); remark: listed apart in the source
[33] = molecular target: EGFR (human) (UniProt P00533); settings: A431
[34] = molecular target: EGFR (human) (UniProt P00533); settings: hn5
[35] = molecular target: CDK2 (human) (UniProt P24941); remark: listed apart in the source

Sequence of EGFR (human) (P00533 whole entry, looked up): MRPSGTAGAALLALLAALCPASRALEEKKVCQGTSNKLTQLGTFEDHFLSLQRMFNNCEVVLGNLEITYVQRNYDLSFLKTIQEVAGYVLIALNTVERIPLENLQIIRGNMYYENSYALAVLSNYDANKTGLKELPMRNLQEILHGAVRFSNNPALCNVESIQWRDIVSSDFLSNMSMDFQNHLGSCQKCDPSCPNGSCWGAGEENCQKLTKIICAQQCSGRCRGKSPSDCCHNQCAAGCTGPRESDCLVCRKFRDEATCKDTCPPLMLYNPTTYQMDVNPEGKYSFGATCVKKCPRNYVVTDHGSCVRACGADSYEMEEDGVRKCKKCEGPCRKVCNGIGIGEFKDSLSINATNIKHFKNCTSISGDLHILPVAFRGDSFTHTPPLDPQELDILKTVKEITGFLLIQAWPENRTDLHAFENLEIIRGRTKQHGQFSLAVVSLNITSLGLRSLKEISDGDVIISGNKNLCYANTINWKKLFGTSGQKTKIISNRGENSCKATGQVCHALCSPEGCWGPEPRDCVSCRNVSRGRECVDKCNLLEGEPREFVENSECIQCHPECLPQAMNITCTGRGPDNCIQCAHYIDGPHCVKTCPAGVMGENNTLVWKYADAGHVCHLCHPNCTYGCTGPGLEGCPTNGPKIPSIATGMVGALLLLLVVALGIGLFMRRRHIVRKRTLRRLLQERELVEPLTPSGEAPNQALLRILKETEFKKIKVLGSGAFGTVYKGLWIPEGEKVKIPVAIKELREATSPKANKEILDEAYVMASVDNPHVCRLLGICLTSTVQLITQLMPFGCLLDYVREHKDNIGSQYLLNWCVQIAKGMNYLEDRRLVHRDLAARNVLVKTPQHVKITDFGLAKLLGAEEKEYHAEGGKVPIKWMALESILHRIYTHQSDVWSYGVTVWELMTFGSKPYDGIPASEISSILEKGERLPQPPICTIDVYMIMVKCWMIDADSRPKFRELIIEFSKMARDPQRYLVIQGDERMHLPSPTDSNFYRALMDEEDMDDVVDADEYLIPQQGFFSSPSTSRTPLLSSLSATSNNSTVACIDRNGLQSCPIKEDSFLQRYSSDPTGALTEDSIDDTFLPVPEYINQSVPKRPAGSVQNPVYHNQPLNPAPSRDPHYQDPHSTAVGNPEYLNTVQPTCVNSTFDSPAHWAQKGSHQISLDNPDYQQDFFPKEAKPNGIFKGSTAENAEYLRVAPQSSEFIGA
Sequence of ROCK2 (human) (O75116 whole entry, looked up): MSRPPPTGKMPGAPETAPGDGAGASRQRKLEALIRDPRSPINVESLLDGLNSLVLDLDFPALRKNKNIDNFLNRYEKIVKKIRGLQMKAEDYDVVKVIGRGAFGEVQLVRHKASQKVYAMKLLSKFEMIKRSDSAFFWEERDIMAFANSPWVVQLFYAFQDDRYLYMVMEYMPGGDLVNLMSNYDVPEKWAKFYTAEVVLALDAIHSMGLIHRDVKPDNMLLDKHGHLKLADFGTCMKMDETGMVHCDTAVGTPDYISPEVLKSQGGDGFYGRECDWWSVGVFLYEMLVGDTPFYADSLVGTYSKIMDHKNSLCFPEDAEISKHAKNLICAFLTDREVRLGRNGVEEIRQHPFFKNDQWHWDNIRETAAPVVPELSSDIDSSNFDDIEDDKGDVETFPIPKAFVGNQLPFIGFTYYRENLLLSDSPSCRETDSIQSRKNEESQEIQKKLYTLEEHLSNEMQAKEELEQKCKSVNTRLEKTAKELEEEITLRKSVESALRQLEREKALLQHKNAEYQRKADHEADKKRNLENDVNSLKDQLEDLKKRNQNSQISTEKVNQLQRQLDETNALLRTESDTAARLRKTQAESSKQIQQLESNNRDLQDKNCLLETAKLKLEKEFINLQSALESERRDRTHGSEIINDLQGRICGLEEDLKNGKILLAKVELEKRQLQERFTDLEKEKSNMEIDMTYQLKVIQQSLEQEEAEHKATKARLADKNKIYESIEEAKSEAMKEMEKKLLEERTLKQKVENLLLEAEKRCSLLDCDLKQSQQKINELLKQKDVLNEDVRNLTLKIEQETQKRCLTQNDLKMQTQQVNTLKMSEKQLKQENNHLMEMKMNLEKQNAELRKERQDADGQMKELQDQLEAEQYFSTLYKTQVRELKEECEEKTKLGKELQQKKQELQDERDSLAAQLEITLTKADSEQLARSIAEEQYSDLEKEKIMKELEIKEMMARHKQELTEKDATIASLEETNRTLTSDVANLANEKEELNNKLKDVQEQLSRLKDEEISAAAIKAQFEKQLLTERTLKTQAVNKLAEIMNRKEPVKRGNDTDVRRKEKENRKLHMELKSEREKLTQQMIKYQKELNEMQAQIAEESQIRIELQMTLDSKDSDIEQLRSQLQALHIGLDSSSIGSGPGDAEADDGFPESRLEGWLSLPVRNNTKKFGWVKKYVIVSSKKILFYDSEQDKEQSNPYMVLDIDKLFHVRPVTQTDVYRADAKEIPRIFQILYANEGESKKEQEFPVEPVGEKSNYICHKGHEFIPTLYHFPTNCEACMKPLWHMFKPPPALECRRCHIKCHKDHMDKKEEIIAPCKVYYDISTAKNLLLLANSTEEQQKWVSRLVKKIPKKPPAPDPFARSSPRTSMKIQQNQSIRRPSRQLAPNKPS

SMILES: CCOCOc1cc(OCOCC)c2c(c1Cl)CC(=O)C=CCCC=CC[C@H](c1ccccc1)OC2=O
- IC50 [1]: 33 µM

SMILES: NC[C@@](O)(c1ccc(Cl)cc1)c1ccc(-c2cn[nH]c2)cc1
- IC50 [2]: < 10 nM

SMILES: NC1=NC(=O)/C(=C2\CCNC(=O)c3[nH]c(Br)cc32)N1
- IC50 [3]: 40 nM
- IC50 [4]: 40 nM
- IC50 [5]: 40 nM
- IC50 [6]: 70 nM

SMILES: COCCCNS(=O)(=O)c1ccc(Nc2nccc(-c3cnc4ccccn34)n2)cc1
- IC50 [5]: 4 nM
- IC50 [7]: 3 nM
- IC50 [8]: 34 nM
- IC50 [9]: 84 nM

SMILES: NC(=O)c1c(NC(=O)CN2C(=O)CCC2=O)sc2c1CCC2
- IC50 [10]: 8 µM

SMILES: CC(C)n1nnc2c(N3CCOCC3)nc(-c3ccc(NC(=O)Nc4ccc(CO)cc4)cc3)nc21
- IC50 [11]: < 30 nM

SMILES: CCOC(=O)[C@@H]1O[C@H]1C(=O)Nc1ccc2ncnc(Nc3cccc(Br)c3)c2c1
- IC50 [12]: 0.5 nM
- IC50 [13]: 6.76 µM

SMILES: COc1cc2c(Nc3ccc(Br)cc3F)ncnc2cc1OCC1CCN(C(=O)CN(C)C)CC1
- IC50 [14]: 100 nM

SMILES: COc1ccc2c(c1)c(C=C1Oc3cc(O)cc(O)c3C1=O)c(C)n2CCN1CCN(CCO)CC1
- IC50 [15]: 4 nM
- IC50 [16]: 9 µM
- IC50 [17]: 5.9 µM
- IC50 [18]: 6.9 µM

SMILES: COc1cc2ncc([N+](=O)[O-])c(Nc3ccc(Cl)c(F)c3)c2cc1OCc1ccccc1
- IC50 [19]: 220 nM
- IC50 [20]: 400 nM

SMILES: CCOC(=O)[C@H]1O[C@@H]1C(=O)Nc1ccc2ncnc(Nc3cccc(Br)c3)c2c1
- IC50 [12]: 0.49 nM
- IC50 [21]: 34 nM and 68 nM

SMILES: COc1ccccc1Cc1nc2ccc(-c3nn([C@H]4CC[C@H](N5CCN(C)CC5)CC4)c4ncnc(N)c34)cc2[nH]1
- IC50 [22]: 58 nM

SMILES: O=S(=O)(Nc1cc(-c2ccc3ncc(N4C[C@H]5CC[C@@H](CC5)C4)nc3c2)cnc1Cl)c1ccc(F)cc1
- IC50 [23]: 5.9 nM
- IC50 [24]: 343 nM

SMILES: COc1cc2ncnc(NCc3ccc(F)c(Cl)c3)c2cc1OCCCCCCC(=O)NO
- IC50 [25]: 72 nM

SMILES: CN1CCN(c2ccc3[nH]c(-c4cc(-c5ccc(NC(=O)Nc6cccc(Cl)c6)cc5)[nH]n4)nc3c2)CC1
- IC50 [26]: ≥ 5 µM

SMILES: CC(Nc1ncnc2[nH]c(-c3ccc(O)cc3)cc12)c1ccccc1 (configuration not stated)
- IC50 [27]: 20 nM

SMILES: COc1cc2ncnc(Nc3cccc(Cl)c3F)c2cc1OC1CCN(C(=O)OCCN2CCCCC2)CC1
- IC50 [28]: 2 nM
- IC50 [29]: 10 nM

SMILES: Nc1ccccc1NC(=O)/C=C/c1cccc(-c2ccc3ncnc(Nc4ccc(OCc5cccc(F)c5)c(Cl)c4)c3c2)c1
- IC50 [30]: > 16 µM

SMILES: CC(C)n1cnc2c(NCc3ccccc3)nc(NCCCO)nc21
- IC50 [31]: 4.6 µM
- IC50 [32]: 83 µM

SMILES: CCc1cc2cccc(C#CCCc3ccccc3)c2cc1CC
- IC50 [33]: 14 nM

SMILES: NC(=O)O[C@H]1CN[C@H](C#Cc2cc3ncnc(Nc4ccc(OCc5cccc(F)c5)c(Cl)c4)c3s2)C1
- EC50 [34]: 100 nM

SMILES: NC(=O)c1sc(-c2ccsc2)cc1N
- IC50 [35]: 61 µM
